The target of experiment [1] is Serine/threonine-protein kinase VRK1 (Homo sapiens) (UniProt Q99986). Description: Inhibition of recombinant human VRK1 assessed as residual activity at 10 uM in presence of [gamma33P]ATP by scintillation counting based radiometry assay relative to control.
Experiment [2] has as its system Serine/threonine-protein kinase Sgk2 (Homo sapiens), Q9HBY8 [S416D]. Description: Inhibition of recombinant human SGK2 S416D mutant (54 to end residues) assessed as residual activity at 10 uM using GRPRTSSFAEGKK as substrate incubated for 40 mins in presence of [gamma33P]ATP by scintillation counting based radiometry assay relative to control.
Experiment [3] addresses Platelet-derived growth factor receptor beta (Homo sapiens) (UniProt P09619). Description: Inhibition of human PDGFRbeta (557 to end residues) assessed as residual activity at 10 uM using poly(Glu, Tyr) 4:1 as substrate measured after 40 mins in presence of [gamma33P]ATP by scintillation counting based radiometry assay relative to control.
For experiment [4], the target named is Dual specificity mitogen-activated protein kinase kinase 4 (Mus musculus) (UniProt P47809). Description: Inhibition of recombinant mouse MKK4 (34 to end residues) assessed as residual activity at 10 uM using poly(Glu, Tyr) 4:1 as substrate incubated for 40 mins in presence of [gamma-33ATP] by scintillation counting based radiometry assay relative to control.

Experiment [5] concerns the target Serine/threonine-protein kinase D3 (Homo sapiens) (UniProt O94806). Description: Inhibition of recombinant full-length human PKD3 assessed as residual activity at 10 uM using KKLNRTLSVA as substrate incubated for 40 mins in presence of [gamma33P]ATP by scintillation counting based radiometry assay relative to control.
Experiment [6] has as its target Serine/threonine-protein kinase MRCK beta (Homo sapiens) (UniProt Q9Y5S2). Description: Inhibition of recombinant human MRCKbeta (1 to 473 residues) assessed as residual activity at 10 uM using KKRNRTLTV as substrate incubated for 40 mins in presence of [gamma-33ATP by scintillation counting based radiometry assay relative to control.
The subject of experiment [7] is CDK18/Cyclin Y (Homo sapiens), Q07002+Q8ND76 [T166M]. Description: Inhibition of recombinant full length human CDK18/cyclinY T166M mutant assessed as residual activity at 10 uM using YRRAAVPPSPSLS as substrate incubated for 40 mins in presence of [gamma-33ATP] by scintillation counting based radiometry assay relative to control. It counts as protein-complex assay.

The target in experiment [8] is Serine/threonine-protein kinase Chk1 (Homo sapiens) (UniProt O14757). Description: Inhibition of recombinant full length human CHK1 assessed as residual activity at 10 uM using KKKVSRSGLYRSPSMPENLNRPR as substrate incubated for 40 mins in presence of [gamma-33ATP] by scintillation counting based radiometry assay relative to control.
The target in experiment [9] is Mitogen-activated protein kinase kinase kinase 7 (Homo sapiens) (UniProt O43318). Description: Inhibition of recombinant human TAK1 (1 to 303 residues) assessed as residual activity at 10 uM using casein as substrate incubated for 40 mins in presence of [gamma33P]ATP by scintillation counting based radiometry assay relative to control.
Experiment [10] concerns the target CDK2/Cyclin A1 (Homo sapiens) (UniProt P24941+P78396). Description: Inhibition of recombinant full length human CDK2/CyclinA assessed as residual activity at 10 uM using Histone H1 as substrate incubated for 40 mins in presence of [gamma-33ATP] by scintillation counting based radiometry assay relative to control. The class given is protein-complex assay.
Experiment [11] deals with Mitogen-activated protein kinase 9 (Homo sapiens) (UniProt P45984). Description: Inhibition of human JNK2alpha2 assessed as residual activity at 10 uM using ATF2 as substrate after 40 mins by [gamma-33ATP] radiometric assay relative to control.
The target of experiment [12] is NUAK family SNF1-like kinase 1 (Homo sapiens) (UniProt O60285). Description: Inhibition of recombinant human ARK5 (2 to end residues) assessed as residual activity at 10 uM using KKKVSRSGLYRSPSMPENLNRPR as substrate incubated for 40 mins in presence of [gamma-33ATP] by scintillation counting based radiometry assay relative to control.
Experiment [13] deals with Serine/threonine-protein kinase ICK (Homo sapiens) (UniProt Q9UPZ9). Description: Inhibition of human ICK (1 to 312 residues) assessed as residual activity at 10 uM using RRRFRPASPLRGP as substrate after 40 mins by [gamma-33ATP] radiometric assay relative to control.
Experiment [14] concerns Angiopoietin-1 receptor (Homo sapiens), Q02763 [Q939H,Q940H,Y897S]. Description: Inhibition of recombinant human TIE2 Q939H/Q940H/Y897S mutant (771 to end residues) assessed as residual activity at 10 uM using EFPIYDFLPAKKK as substrate incubated for 40 mins in presence of [gamma33P]ATP by scintillation counting based radiometry assay relative to control.
In experiment [15] the target is Fibroblast growth factor receptor 3 (Homo sapiens) (UniProt P22607). Description: Inhibition of recombinant human FGFR3 (447 to 761 residues) assessed as residual activity at 10 uM using poly(Glu, Tyr) 4:1 as substrate at 40 mins in presence of [gamma-33ATP] by scintillation counting based radiometry assay relative to control.
For experiment [16], the target named is Macrophage-stimulating protein receptor (Homo sapiens) (UniProt Q04912). Description: Inhibition of recombinant human Ron (983 to end residues) assessed as residual activity at 10 uM using GGMEDIYFEFMGGKKK as substrate incubated for 40 mins in presence of [gamma33P]ATP by scintillation counting based radiometry assay relative to control.
For experiment [17], the target named is Serine/threonine-protein kinase PAK 6 (Homo sapiens) (UniProt Q9NQU5). Description: Inhibition of recombinant human PAK6 (382 to end residues) assessed as residual activity at 10 uM using RRRLSFAEPG as substrate measured after 40 mins in presence of [gamma33P]ATP by scintillation counting based radiometry assay relative to control.
Experiment [18] concerns the target Protein kinase C epsilon type (Homo sapiens) (UniProt Q02156). Description: Inhibition of recombinant human PKCepsilon (2 to end residues) assessed as residual activity at 10 uM using ERMRPRKRQGSVRRRV as substrate incubated for 40 mins in presence of [gamma33P]ATP by scintillation counting based radiometry assay relative to control.
Experiment [19] has as its target BMP-2-inducible protein kinase (Homo sapiens) (UniProt Q9NSY1). Description: Inhibition of recombinant human BIKe assessed as residual activity at 10 uM using peptide as substrate incubated for 120 mins in presence of [gamma-33ATP] by scintillation counting based radiometry assay relative to control.
Experiment [20] has as its target Tyrosine-protein kinase JAK2 (Homo sapiens) (UniProt O60674). Description: Inhibition of human JAK2 (808 to end residues) assessed as residual activity at 10 uM using KTFCGTPEYLAPEVRREPRILSEEEQEMFRDFDYIADWC as substrate after 40 mins by [gamma-33ATP] radiometric assay relative to control.
For experiment [21], the target named is Death-associated protein kinase 3 (Homo sapiens) (UniProt O43293). Description: Inhibition of recombinant human ZIPK (1 to 290 residues) assessed as residual activity at 10 uM using KKLNRTLSFAEPG substrate incubated for 40 mins in presence of [gamma33P]ATP by scintillation counting based radiometry assay relative to control.

Protein kinase C epsilon type (Homo sapiens), sequence (Q02156 whole entry): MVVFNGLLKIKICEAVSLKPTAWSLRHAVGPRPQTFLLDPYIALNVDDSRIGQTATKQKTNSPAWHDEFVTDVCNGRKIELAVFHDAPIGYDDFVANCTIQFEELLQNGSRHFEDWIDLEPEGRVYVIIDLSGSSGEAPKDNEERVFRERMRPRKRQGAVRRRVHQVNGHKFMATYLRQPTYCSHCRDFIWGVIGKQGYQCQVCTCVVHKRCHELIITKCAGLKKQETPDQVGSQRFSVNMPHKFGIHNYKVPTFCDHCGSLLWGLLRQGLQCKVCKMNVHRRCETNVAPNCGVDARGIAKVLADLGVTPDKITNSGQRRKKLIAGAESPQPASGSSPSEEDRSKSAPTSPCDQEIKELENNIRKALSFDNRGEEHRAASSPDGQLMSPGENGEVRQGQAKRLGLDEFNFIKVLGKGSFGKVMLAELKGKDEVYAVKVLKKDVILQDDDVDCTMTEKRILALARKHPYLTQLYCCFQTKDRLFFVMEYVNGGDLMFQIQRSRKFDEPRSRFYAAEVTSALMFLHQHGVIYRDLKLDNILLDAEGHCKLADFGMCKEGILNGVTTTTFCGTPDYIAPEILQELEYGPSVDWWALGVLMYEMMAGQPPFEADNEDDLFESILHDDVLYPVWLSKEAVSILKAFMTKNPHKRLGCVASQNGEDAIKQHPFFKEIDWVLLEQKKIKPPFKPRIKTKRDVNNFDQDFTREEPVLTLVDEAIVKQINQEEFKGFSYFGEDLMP
NUAK family SNF1-like kinase 1 (Homo sapiens), sequence (O60285 whole entry, the tested form may be a part): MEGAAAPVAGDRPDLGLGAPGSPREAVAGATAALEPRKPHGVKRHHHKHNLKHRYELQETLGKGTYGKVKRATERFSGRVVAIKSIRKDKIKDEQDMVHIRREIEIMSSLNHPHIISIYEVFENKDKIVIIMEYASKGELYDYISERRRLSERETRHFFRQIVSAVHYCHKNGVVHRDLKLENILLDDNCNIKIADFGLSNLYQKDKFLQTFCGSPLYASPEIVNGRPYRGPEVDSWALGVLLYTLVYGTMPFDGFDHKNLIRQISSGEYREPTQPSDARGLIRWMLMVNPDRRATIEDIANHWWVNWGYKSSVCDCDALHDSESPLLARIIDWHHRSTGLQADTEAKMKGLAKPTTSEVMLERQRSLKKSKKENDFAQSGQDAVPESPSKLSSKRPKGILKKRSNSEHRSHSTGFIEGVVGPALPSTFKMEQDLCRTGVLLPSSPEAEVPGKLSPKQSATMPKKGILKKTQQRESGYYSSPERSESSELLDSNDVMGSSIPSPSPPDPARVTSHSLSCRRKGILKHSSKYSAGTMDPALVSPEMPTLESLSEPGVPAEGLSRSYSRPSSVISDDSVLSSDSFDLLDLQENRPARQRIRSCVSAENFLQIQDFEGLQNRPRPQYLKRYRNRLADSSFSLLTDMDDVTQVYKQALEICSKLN
BMP-2-inducible protein kinase (Homo sapiens), sequence (Q9NSY1 whole entry, looked up): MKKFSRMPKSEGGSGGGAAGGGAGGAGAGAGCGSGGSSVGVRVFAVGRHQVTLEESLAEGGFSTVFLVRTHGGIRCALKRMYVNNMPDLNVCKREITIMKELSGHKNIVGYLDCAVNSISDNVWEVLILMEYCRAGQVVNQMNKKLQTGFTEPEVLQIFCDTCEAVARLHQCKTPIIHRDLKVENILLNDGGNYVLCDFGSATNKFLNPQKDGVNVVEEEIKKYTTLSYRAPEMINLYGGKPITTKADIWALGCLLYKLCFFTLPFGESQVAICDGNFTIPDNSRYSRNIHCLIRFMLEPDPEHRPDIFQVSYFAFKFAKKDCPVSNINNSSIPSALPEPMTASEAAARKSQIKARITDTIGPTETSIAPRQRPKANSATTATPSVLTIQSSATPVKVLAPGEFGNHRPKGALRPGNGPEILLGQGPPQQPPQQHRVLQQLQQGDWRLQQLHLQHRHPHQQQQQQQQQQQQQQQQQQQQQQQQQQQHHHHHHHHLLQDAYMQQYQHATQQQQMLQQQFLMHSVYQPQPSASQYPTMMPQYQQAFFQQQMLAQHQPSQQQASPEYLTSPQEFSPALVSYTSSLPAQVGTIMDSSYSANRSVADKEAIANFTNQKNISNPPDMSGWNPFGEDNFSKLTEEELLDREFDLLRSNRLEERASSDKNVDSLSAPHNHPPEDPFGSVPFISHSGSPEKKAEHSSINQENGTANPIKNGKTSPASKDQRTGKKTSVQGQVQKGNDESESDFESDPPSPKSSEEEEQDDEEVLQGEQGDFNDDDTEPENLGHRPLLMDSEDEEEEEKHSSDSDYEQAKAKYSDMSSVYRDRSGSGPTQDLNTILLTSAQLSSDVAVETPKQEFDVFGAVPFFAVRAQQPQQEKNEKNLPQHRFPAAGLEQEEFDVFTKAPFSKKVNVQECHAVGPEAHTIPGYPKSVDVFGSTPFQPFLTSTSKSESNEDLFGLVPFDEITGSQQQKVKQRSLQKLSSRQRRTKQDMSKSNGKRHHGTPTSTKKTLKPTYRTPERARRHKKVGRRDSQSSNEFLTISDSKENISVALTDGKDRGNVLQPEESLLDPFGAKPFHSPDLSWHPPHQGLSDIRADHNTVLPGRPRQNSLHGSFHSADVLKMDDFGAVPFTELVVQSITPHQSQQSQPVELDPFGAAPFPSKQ
Serine/threonine-protein kinase Chk1 (Homo sapiens), sequence (O14757 whole entry, the tested form may be a part): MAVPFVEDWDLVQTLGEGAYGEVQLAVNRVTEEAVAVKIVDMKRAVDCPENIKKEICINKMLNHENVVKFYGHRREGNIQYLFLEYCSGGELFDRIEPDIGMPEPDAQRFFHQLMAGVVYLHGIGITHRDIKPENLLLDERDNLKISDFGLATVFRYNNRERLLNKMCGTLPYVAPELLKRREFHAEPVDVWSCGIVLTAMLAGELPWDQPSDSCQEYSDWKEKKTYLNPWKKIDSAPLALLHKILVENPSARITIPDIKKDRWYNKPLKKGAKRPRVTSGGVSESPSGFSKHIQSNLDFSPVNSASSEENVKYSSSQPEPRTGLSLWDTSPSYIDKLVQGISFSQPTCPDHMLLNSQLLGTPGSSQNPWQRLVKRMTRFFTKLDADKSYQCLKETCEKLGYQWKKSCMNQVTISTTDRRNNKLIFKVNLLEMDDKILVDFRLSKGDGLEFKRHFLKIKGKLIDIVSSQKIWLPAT
Serine/threonine-protein kinase MRCK beta (Homo sapiens), sequence (Q9Y5S2 whole entry, the tested form may be a part): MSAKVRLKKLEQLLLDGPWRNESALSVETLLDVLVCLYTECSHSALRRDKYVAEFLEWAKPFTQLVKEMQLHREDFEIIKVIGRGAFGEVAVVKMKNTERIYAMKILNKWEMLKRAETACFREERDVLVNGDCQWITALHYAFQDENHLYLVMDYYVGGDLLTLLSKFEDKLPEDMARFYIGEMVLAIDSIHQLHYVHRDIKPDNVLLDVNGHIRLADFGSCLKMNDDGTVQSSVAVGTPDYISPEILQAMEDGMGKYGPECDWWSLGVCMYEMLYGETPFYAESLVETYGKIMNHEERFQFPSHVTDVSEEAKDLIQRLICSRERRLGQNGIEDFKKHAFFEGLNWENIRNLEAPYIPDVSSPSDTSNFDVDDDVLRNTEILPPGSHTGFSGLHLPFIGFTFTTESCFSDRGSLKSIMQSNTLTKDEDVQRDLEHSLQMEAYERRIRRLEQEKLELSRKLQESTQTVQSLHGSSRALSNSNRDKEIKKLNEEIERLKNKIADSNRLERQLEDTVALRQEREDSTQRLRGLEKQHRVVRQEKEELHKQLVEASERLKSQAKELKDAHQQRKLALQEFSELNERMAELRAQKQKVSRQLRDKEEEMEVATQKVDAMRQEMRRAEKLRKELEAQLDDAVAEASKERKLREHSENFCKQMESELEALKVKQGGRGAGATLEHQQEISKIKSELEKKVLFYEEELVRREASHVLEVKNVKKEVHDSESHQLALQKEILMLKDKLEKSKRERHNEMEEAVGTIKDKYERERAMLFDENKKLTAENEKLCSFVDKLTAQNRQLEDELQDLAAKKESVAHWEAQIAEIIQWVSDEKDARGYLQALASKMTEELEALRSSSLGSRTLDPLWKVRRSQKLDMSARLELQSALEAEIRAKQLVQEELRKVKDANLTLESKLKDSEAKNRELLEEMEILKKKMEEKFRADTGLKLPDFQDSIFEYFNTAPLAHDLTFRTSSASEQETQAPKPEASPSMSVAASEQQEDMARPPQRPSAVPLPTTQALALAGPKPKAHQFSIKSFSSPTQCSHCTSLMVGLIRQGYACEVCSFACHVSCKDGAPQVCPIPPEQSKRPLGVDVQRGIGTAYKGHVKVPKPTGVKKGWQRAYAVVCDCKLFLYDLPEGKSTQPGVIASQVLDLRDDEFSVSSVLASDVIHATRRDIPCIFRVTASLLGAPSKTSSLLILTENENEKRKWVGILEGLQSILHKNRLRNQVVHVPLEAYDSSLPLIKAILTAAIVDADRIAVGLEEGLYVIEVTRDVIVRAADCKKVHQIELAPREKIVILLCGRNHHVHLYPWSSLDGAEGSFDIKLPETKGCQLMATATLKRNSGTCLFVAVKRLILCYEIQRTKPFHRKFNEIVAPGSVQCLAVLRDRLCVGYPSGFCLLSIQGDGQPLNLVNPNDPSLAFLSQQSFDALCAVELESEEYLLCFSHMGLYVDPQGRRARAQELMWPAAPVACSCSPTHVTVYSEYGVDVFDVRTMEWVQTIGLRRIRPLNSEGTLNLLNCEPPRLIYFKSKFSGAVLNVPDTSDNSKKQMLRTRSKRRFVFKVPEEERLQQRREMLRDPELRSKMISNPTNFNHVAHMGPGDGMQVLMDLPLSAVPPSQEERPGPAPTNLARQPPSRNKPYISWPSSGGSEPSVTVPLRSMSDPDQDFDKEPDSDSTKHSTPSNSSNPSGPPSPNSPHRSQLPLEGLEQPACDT

As to `C[C@@H](c1ccccc1)n1nnc2cnc3ccc(-c4cnc5[nH]ccc5c4)cc3c21`, the Activity in experiment [1] was 96%; in experiment [2], 36%; in [3] it was 79%; in experiment [4], 129%; in experiment [5] it was 53%; in experiment [6] it was 105%. In addition, the Activity in experiment [7] came to 94%; in [8], 140%; in experiment [9], 91%; in experiment [10], 63%; in [11], 95%; in [12], 73%. The Activity in experiment [13] was 44%; in experiment [14] it was 81%; in [15], 50%; in [16], 79%; in experiment [17] it was 74%; in [18], 97%. Also, the Activity in experiment [19] was 54%; in experiment [20], 43%; in [21], 69%.

The values above are taken from ChEMBL document CHEMBL4334471, “Discovery of 1,8-disubstituted-[1,2,3]triazolo[4,5-c]quinoline derivatives as a new class of Hippo signaling pathway inhibitors” (Bioorg Med Chem Lett, 2019).
